Results on 40 compounds are retold here after patent US9018224B2, “Substituted cyclopropyl compounds useful as GPR119 agonists” (Merck Sharp & Dohme Corp., priority 2011, dated 2015).

Usually EC50 stands for the midpoint of the concentration-response curve. A high value points to a less potent agent.

In the assay the target is T1, human GPR119 (Homo sapiens, UniProt Q8TDV5).
T1 sequence (Q8TDV5 1-308 limits assumed): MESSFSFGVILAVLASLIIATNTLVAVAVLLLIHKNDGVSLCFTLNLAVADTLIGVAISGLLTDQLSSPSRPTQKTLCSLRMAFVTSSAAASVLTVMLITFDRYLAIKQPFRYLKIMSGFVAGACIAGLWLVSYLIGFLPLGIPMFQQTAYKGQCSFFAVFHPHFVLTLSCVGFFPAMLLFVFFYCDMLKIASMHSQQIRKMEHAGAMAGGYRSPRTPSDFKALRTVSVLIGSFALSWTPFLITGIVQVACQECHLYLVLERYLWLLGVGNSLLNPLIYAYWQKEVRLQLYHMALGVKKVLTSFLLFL
In words: Measurement of GPR119 signaling by cAMP (LANCE cAMP kit or HTRF) in HEK293 cells transfected with human GPR119. Particulars: agonist cAMP response in HEK293 cells stably transfected with human GPR119; patent does not say which of the two cAMP formats (LANCE or HTRF). Type of assay: cell-based. The method, then:
Measurement of GPR119 Signaling Using LANCE 384-Well cAMP Kit
The adenylate cyclase assay was constructed following the LANCE™ cAMP Kit (Perkin Elmer, AD0264) instructions. […] The reaction was stopped by incubating with the supplied detection buffer containing the europium chelate of the Eu-SA/Biotin-cAMP tracer for 3 hours. The assay was performed in duplicate in a 384 well plate for duplicate plates. […] Basal activity was determined using a DMSO control and maximum response was defined as cAMP stimulation produced by an internal agonist control. Standard cAMP concentrations were assayed concurrently for conversion of fluorescence signal to cAMP level. The data was analyzed using 4-parameter curve fit in Microsoft Excel
Measurement of GPR119 Signaling Using a Cyclic AMP (cAMP) Homogenous Time Resolved Fluorescence (HTRF) Assay
Chinese hamster ovary (CHO) cell lines stably transfected with the permissive guanine nucleotide binding protein alpha 15 (Gα15) and murine GPR119 were maintained in DMEM media containing FBS, penicillin-streptomycin, puromycin, and G418 (geneticin). […] Agonist activation of the GPR119 receptor was measured in receptor transfected cells described above, treated with compounds of this invention, using a commercial homogenous time resolved fluorescence (HTRF) kit for measurement of cAMP (CisBio, Bedford, Mass.). The assay was performed in 96-well half-volume plates (murine) or 384-well plates (human) following the manufacturers instructions. Briefly, suspended cells were incubated with a dose titration of test compound at room temperature for 60 min, lysed, and incubated with HTRF reagents for an additional 60 min. The plate was read using an Envision multilabel reader (Perkin Elmer) adjusted to read time resolved fluorescence and the cAMP concentrations were extrapolated from a cAMP calibration curve. […] The concentration of test compound required to stimulate a half-maximal response (EC50), and efficacy as compared to an internal agonist control, was determined from a sigmoidal 4-parameter curve fit of the resulting plot of normalized activity versus compound concentration.
On the technique in general: Time-resolved FRET reads energy transfer from a long-lived donor to a nearby acceptor.
Compound `COCc1cnc(N2CCC([C@H]3C[C@H]3CCOc3ccc(CC(=O)N4CC(O)C4)cc3)CC2)nc1` [Example 7, 1-(3-hydroxyazetidin-1-yl)-2-(4-{2-[(1S,2R)-2-{1-[5-(methoxymethyl)pyrimidin-2-yl]piperidin-4-yl}cyclopropyl]ethoxy}phenyl)ethanone] gave an EC50 of 7.7 nM.
The compound `O=C(Cc1ccc(OCC[C@@H]2C[C@@H]2C2CCN(c3ncc(Cl)cn3)CC2)cc1F)N1CCCc2[nH]nc(C3CC3)c21` [Example 196] registered an EC50 of 5.4 nM.
`CCc1cnc(N2CCC([C@H]3C[C@H]3CCOc3ccc(CC(=O)N(C)C)c(C)c3)CC2)nc1` [Example 19] gave an EC50 of 2.3 nM.
Consider `Fc1cc(OCC[C@@H]2C[C@@H]2C2CCN(c3ncc(Cl)cn3)CC2)ccc1Cc1nnco1` [Example 245, 5-chloro-2-{4-[(1R,2S)-2-(2-{3-fluoro-4-[(1,3,4-oxadizol-2-yl)methyl]phenoxy}ethyl)cyclopropyl]piperidin-1-yl}pyrimidine], for which the half-maximal effective concentration (EC50) is 4.1 nM.
Next, `O=C(Cc1ccc(OCC[C@@H]2C[C@@H]2C2CCN(c3ncc(Cl)cn3)CC2)cc1F)N1CCC(C(F)(F)F)n2nccc21` (stereo partly shown) [Example 195]: 2.9 nM; `CCN(CC)C(=O)Cc1ccc(OCC[C@@H]2C[C@@H]2C2CCN(c3ncc(Cl)cn3)CC2)cc1F` [Example 98]: 9.2 nM; `COCc1cnc(N2CCC([C@H]3C[C@H]3CCOc3ccc(CC(=O)N4C[C@H](F)[C@@H](F)C4)c(F)c3)CC2)nc1` [Example 50]: 1 nM.
Next, `COc1cc(OCC[C@@H]2C[C@@H]2C2CCN(c3ncc(Cl)cn3)CC2)ccc1CC(=O)N1CCC1` [Example 26, 1-(azetidin-1-yl)-2-[4-(2-{(1S,2R)-2-[1-(5-chloropyrimidin-2-yl)piperidin-4-yl]cyclopropyl}ethoxy)-2-methoxyphenyl]ethanone]: 7.1 nM; `COc1cnc(N2CCC([C@H]3C[C@H]3CCOc3ccc(CC(=O)N4CCC4)c(F)c3)CC2)nc1` [Example 37]: 0.94 nM.
Next, `O=C(Cc1ccc(OCC[C@@H]2C[C@@H]2C2CCN(c3ncc(Cl)cn3)CC2)cc1F)N1CCn2cc(C(F)(F)F)nc2C1` [Example 132]: 0.55 nM; `COC1CN(C(=O)Cc2ccc(OCC[C@@H]3C[C@@H]3C3CCN(c4ncc(Cl)cn4)CC3)cc2F)C1` [Example 69]: 0.17 nM; `O=C(Cc1ccc(OCC[C@@H]2C[C@@H]2C2CCN(c3ncc(Cl)cn3)CC2)cc1F)N1CCOCC1` [Example 80]: 0.76 nM.
Take `CN(Cc1n[nH]c(=O)[nH]1)C(=O)Cc1ccc(OCC[C@@H]2C[C@@H]2C2CCN(c3ncc(Cl)cn3)CC2)cc1F` [Example 158]: the EC50 was found to be 6.6 nM.
Under `COCc1cnc(N2CCC([C@H]3C[C@H]3CCOc3ccc(CC(=O)N4CC(O)C4)c(Cl)c3)CC2)nc1` [Example 29] stands 2.4 nM.
In turn, `O=C(Cc1ccc(OCC[C@@H]2C[C@@H]2C2CCN(c3ncc(Cl)cn3)CC2)cc1F)N1CC(n2ccnc2)C1` [Example 118] returned an EC50 of 1.1 nM.
Next, `COCc1cnc(N2CCC([C@H]3C[C@H]3CCOc3ccc(CC(=O)N(C)C)c(Cl)c3)CC2)nc1` [Example 28, 2-(2-chloro-4-{2-[(1S,2R)-2-{1-[5-(methoxymethyl)pyrimidin-2-yl]piperidin-4-yl}cyclopropyl]ethoxy}phenyl)-N,N-dimethylacetamide]: 2.3 nM; `O=C(c1cn2c(n1)CN(C(=O)Cc1ccc(OCC[C@@H]3C[C@@H]3C3CCN(c4ncc(Cl)cn4)CC3)cc1F)CC2)C1CC1` [Example 144]: 7.2 nM.
Under `CCC(C)CN(C)C(=O)Cc1ccc(OCC[C@@H]2C[C@@H]2C2CCN(c3ncc(Cl)cn3)CC2)cc1F` (stereo partly shown) [Example 160] stands 3.1 nM.
Under `COc1cnc(N2CCC([C@H]3C[C@H]3CCOc3ccc(CC(=O)N4CCOCC4)c(F)c3)CC2)nc1` [Example 38] stands 1.4 nM; under `COc1cnc(N2CCC([C@H]3C[C@H]3CCOc3cc(F)c(CC(=O)N4CC(O)C4)c(F)c3)CC2)nc1` [Example 210, 2-[2,6-difluoro-4-(2-{(1S,2R)-2-[1-(5-methoxypyrimidin-2-yl)piperidin-4-yl]cyclopropyl}ethoxy)phenyl]-1-(3-hydroxyazetidin-1-yl)ethanone], 0.59 nM; under `CN(CCO)C(=O)Cc1ccc(OCC[C@@H]2C[C@@H]2C2CCN(c3ncc(Cl)cn3)CC2)cc1F` [Example 170], 1.7 nM.
In turn, `O=C(Cc1ccc(OCC[C@@H]2C[C@@H]2C2CCN(c3ncc(Cl)cn3)CC2)cc1F)N1CCn2cnnc2C1` [Example 138] gave an EC50 of 1.5 nM.
`Cc1cc(OCC[C@@H]2C[C@@H]2C2CCN(c3ncc(Cl)cn3)CC2)ccc1CC(=O)N1CCC1` [Example 15, 1-(azetidin-1-yl)-2-[4-(2-{(1S,2R)-2-[1-(5-chloropyrimidin-2-yl)piperidin-4-yl]cyclopropyl}ethoxy)-2-methylphenyl]ethanone]: a half-maximal effect (EC50) was put at 0.73 nM.
Next, `O=C(Cc1ccc(OCC[C@@H]2C[C@@H]2C2CCN(c3ncc(Cl)cn3)CC2)cc1F)N1Cc2cn[nH]c2C1` [Example 120]: 1 nM.
Next, `Cc1n[nH]c2c1CN(C(=O)Cc1ccc(OCC[C@@H]3C[C@@H]3C3CCN(c4ncc(Cl)cn4)CC3)cc1F)CC2` [Example 140]: 3.2 nM.
Under `O=C(Cc1ccc(OCC[C@@H]2C[C@@H]2C2CCN(c3ncc(Cl)cn3)CC2)cc1F)N1CCCc2cnccc21` [Example 194] stands 3.6 nM; under `C[C@H]1CCCN1C(=O)Cc1ccc(OCC[C@@H]2C[C@@H]2C2CCN(c3ncc(Cl)cn3)CC2)cc1F` [Example 117], 1.7 nM; under `O=C(Cc1ccc(OCC[C@@H]2C[C@@H]2C2CCN(c3ncc(Cl)cn3)CC2)nc1)N1CCC1` [Example 242], 9.4 nM.
`C[C@H]1CCCN1C(=O)Cc1ccc(OCC[C@@H]2C[C@@H]2C2CCN(c3ncc(Cl)cn3)CC2)cc1F` [Example 73] had an EC50 of 2.7 nM.
`CC1CN(C(=O)Cc2ccc(OCC[C@@H]3C[C@@H]3C3CCN(c4ncc(Cl)cn4)CC3)cc2F)Cc2nnc(C(F)(F)F)n21` (stereo partly shown) [Example 175]: the EC50 came to 1.1 nM.
`COCc1cnc(N2CCC([C@H]3C[C@H]3CCOc3ccc(CC(=O)N4CCC(O)CC4)c(F)c3)CC2)nc1` [Example 56] showed an EC50 of 3.7 nM.
Next, `COCc1cnc(N2CCC([C@H]3C[C@H]3CCOc3cc(F)c(CC(=O)N4CCC4)c(F)c3)CC2)nc1` [Example 219, 1-(azetidin-1yl)-2-(2,6-difluoro-4-{2[(1S,2R)-2-{1-[5-(methoxylmethyl)pyrimidin-2yl]piperidin-4-yl}cyclopropyl]ethoxyl}phenyl)ethanone]: 0.18 nM; `COCc1cnc(N2CCC([C@H]3C[C@H]3CCOc3ccc(CC(=O)N4CC(F)(F)C4)cc3)CC2)nc1` [Example 12]: 3 nM.
`CN(C(=O)Cc1ccc(OCC[C@@H]2C[C@@H]2C2CCN(c3ncc(Cl)cn3)CC2)cc1F)C1CCCC1` [Example 82] displayed a half-maximal effective concentration (EC50) of 2.9 nM.
For `O=C(Cc1ccc(OCC[C@@H]2C[C@@H]2C2CCN(c3ncc(Cl)cn3)CC2)cc1F)N1CCn2c(nnc2C(F)(F)F)C1` [Example 133], the EC50 came to 0.91 nM.
Next, `CC1(NC(=O)Cc2ccc(OCC[C@@H]3C[C@@H]3C3CCN(c4ncc(Cl)cn4)CC3)cc2F)CCC1` [Example 92]: 4 nM; `O=C(Cc1ccc(OCC[C@@H]2C[C@@H]2C2CCN(c3ncc(Cl)cn3)CC2)cc1F)NCC1(O)CC1` [Example 101]: 5.2 nM.
Under `COC(=O)C1CN(C(=O)Cc2ccc(OCC[C@@H]3C[C@@H]3C3CCN(c4ncc(Cl)cn4)CC3)cc2F)C1` [Example 115] stands 2.2 nM; under `CN(C)C(=O)Cc1ccc(OCC[C@@H]2C[C@@H]2C2CCN(c3ncc(Cl)cn3)CC2)cc1F` [Example 81], 0.63 nM; under `CN(C(=O)Cc1ccc(OCC[C@@H]2C[C@@H]2C2CCN(c3ncc(Cl)cn3)CC2)cc1F)C1CCOCC1` [Example 155], 1.3 nM.
